Data set [1] concerns Bifidobacterium breve JCP7499 HM 1120. Nature of the data set: MIC against human normal gut microbiota. In kind it is cell-based. Particulars: JCP7499HM1120, 48 h. Here is the method:
(§1) Three different bacterial strains were used in this experiment; Bifidobacterium (anaerobic Gram positive bacteria), Bacteroides (anaerobic Gram negative bacteria) and Lactobacillus (microaerophilic Gram positive bacteria). Bifidobacterium and Bacteroides were first grown for 48 hours at 37° C., anaerobically using brain heart infusion supplemented (BHIS) agar (Brain heart infusion agar supplemented with hemin, vitamin K and L-cysteine). Lactobacillus was cultivated on MRS agar and incubated in presence of 5% CO2 for 48 hours at 37° C. Each bacterium was suspended in phosphate buffered saline (PBS) to produce a suspension with optical density that matches 0.5 McFarland standard and diluted in brain heart infusion supplemented broth (for Bifidobacterium and Bacteroides) or in MRS broth (for Lactobacillus) to achieve bacterial concentration of approximately 5×10^5 CFU/ml. Bacteria were then seeded in 96-well plates containing serial dilutions of the compounds and incubated as mentioned previously for 48 hours.

Data set [2] has as its system Bacteroides dorei CL02T12C06 HM-719. Nature of the data set: MIC against human normal gut microbiota. In kind it is cell-based. Particulars: Phocaeicola dorei, 48 h. Here is the method:
as §1

The subject of data set [3] is Bacteroides fragilis CL07T00C01 HM-709. Nature of the data set: MIC against human normal gut microbiota. Particulars: 48 h. Type of data set: cell-based. Here is the method:
as §1

Data set [4] relates to Enterococcus faecalis S613 HM-334. The data set can be described thus: MIC, broth microdilution (CLSI). In kind it is cell-based. The settings on record: Enterococcus faecalis. Here is the method: (§2) The minimum inhibitory concentrations (MICs) of the compounds and control drugs were determined using the broth microdilution method, according to guidelines outlined by the Clinical and Laboratory Standards Institute (CLSI). Enterococci strains were grown aerobically overnight on tryptone soya agar plates at 37° C., afterwards a bacterial solution equivalent to 0.5 McFarland standard was prepared and diluted in tryptone soy broth (TSB) to achieve a bacterial concentration of about 5×10^5 CFU/mL and seeded in 96-well well plates. Compounds and control drugs were added in the first row of the 96-well plates and serially diluted along the plates. Plates were then incubated aerobically at 37° C. for 18-20 hours. MICs reported in Table 1 are the minimum concentration of the compounds/control drugs that could inhibit completely the visual growth of the bacteria.
(§3) The minimum inhibitory concentrations (MICs) of CAIs were tested against clinical isolates of vancomycin sensitive and vancomycin resistant Enterococci strains as per the guidelines provided by the Clinical and Laboratory Standards Institute (CLSI). The selected strains of Enterococci were streaked on Tryptic Soy Agar (TSA) plates and let grow for 24 hours at 37° C. Afterwards, a bacterial solution equivalent to 0.5 McFarland standard was prepared and diluted in tryptone soy broth (TSB) or brain heart infusion broth (BHIB) to achieve a bacterial concentration of about 5×10^5 CFU/mL and seeded in 96-well well plates. Compounds and control drugs were added in the first row of the 96-well plates and serially diluted along the plates. Plates were then incubated aerobically at 37° C. for 18-20 hours. MICs reported in Table 5 are the minimum concentration of the compounds/control drugs that could inhibit completely the visual growth of the bacteria.
The minimum inhibitory concentrations (MICs) of CAIs were tested against vancomycin resistant Enterococcus faecalis—S613 HM 334 strain as per the guidelines provided by the Clinical and Laboratory Standards Institute (CLSI). The selected strain was streaked on Tryptic Soy Agar (TSA) plate and let grow for 24 hours at 37° C. […] Compounds and control drugs were added in the first row of the 96-well plates and serially diluted along the plates. Plates were then incubated aerobically at 37° C. for 18-20 hours. MICs reported in table (6) are the minimum concentration of the compounds/control drugs that could inhibit completely the visual growth of the bacteria.

Data set [5] concerns Enterococcus fecalis Strain SF 24397 NR31970. Nature of the data set: MIC, broth microdilution (CLSI). In kind it is cell-based. Here is the method:
as §2, §3

The test system of data set [6] is Enterococcus fecalis Strain MMH594 - NR31975. Nature of the data set: microbe, parasite or virus in culture. In kind it is cell-based. The settings on record: Table 7; TSB. The procedure: as §2
Data set [7] deals with Enterococcus faecium Patient #3-1 NR-31912. The data set can be described thus: MIC, broth microdilution (CLSI). The settings on record: Table 7; TSB. Type of data set: cell-based. Here is the method: as §2
On the technique in general: Broth dilution looks for growth in wells or tubes with falling amounts of substance.

In data set [8] the test system is Enterococcus fecalis Strain SF 28073 - NR31972. Nature of the data set: MIC, broth microdilution (CLSI). In kind it is cell-based. Particulars: Table 7; TSB. The procedure:
as §2

Data set [9] relates to Enterococcus fecalis Strain SF24413 NR31971. The data set can be described thus: MIC, broth microdilution (CLSI). In kind it is cell-based. Particulars: Table 7; TSB. The procedure:
as §2

The subject of a further data set is gut microbiota. Set-up: species or system C57BL/6 mice. The settings on record: mouse, in vivo, po, 10 mg/kg. Here is the method: CAIs had no major impact on microbiota composition. An extremely promising and innovative feature of CAIs is their narrow spectrum of activity and their ability to decolonize VRE without harming the microbiome. […] To characterize the impact of CAIs administration on the composition of the gut microbiota we performed the following assay6. Female 12-week-old C57BL/6 mice (n=5 mice per group) were exposed to CAIs by oral gavage for 10 days (10 mg/kg daily). Twenty-four hours after last dose, mice were euthanized and cecal and colon contents were harvested. The microbiome was characterized using 16S rDNA gene sequencing. The microbiotas from treated mice were compared to those from a group of control mice. […] However, at the phylum level, we observed decrease in Firmicutes in CAIs treatment groups and likely due to decrease of enterococci as enterococcus is a large genus of the phylum Firmicutes. The Verrucomicrobia and Bacteroidetes remain constant while other phyla increase to fill the remaining percentage from Firmicute loss. […] Indeed, the use of traditional antibiotics can increase the selective pressure and contribute to the selection of other multi-drug-resistant organisms (Kofteridis D. et al., Int J Infect Dis 2009, 13, e313-315).

The test system of data set [10] is vancomycin-resistant E. faecium. The data set can be described thus: Mouse model of GI colonization by VRE. Type of data set: in vivo, C57BL/6 mice. Particulars: 10 mg/kg oral gavage for 8 days; feces as early as 3rd day. An excerpt:
Feasibility in vivo study: AZM reduces VRE load in the intestines and faeces. The promising feature, and the specific and potent antimicrobial activity of CAIs, prompted us to evaluate the in vivo efficacy of AZM in our established mouse model of GI colonization by enterococci with features that mimic the antibiotic-induced enterococcal expansion observed in humans (Mohammad, H. et al., Int J Antimicrob Agents 2018, 51, 897-904; Abdelkhalek, A, et al., PLoS One 2018, 13, e0199710). We tested AZM (two clinical doses 10 and 20 mg/kg) in female 12-week-old C57BL/6 mice (n=5 mice per group) that were sensitized with ampicillin ([…] in drinking water) for 7 days to reduce the microbiota present in the gastrointestinal tract and colonized with 10^8 CFU/mL of vancomycin-resistant E. faecium.
We thought that the rapid absorption of AZM from the gastrointestinal tract would limit their exposure time to VRE present in the gastrointestinal tract.
Mice were treated for 8 days with 10 mg/kg of drugs by oral gavage.

Data set [11] is classed as in vivo. The settings on record: 200 mg/kg twice daily (400 mg/kg daily) for three days.

The structures appear in SMILES notation. In brackets after ≈: the same amount, converted by molar mass. Like-named read-outs stand apart in the source and are kept apart here.

With `CN[C@H](CC(C)C)C(=O)N[C@H]1C(=O)N[C@@H](CC(N)=O)C(=O)N[C@H]2C(=O)N[C@H]3C(=O)N[C@H](C(=O)N[C@H](C(=O)O)c4cc(O)cc(O)c4-c4cc3ccc4O)[C@H](O)c3ccc(c(Cl)c3)Oc3cc2cc(c3O[C@@H]2O[C@H](CO)[C@@H](O)[C@H](O)[C@H]2O[C@H]2C[C@](C)(N)[C@H](O)[C@H](C)O2)Oc2ccc(cc2Cl)[C@H]1O` [Vancomycin, reference compound], the MIC in data set [1] was 8 µg/mL (≈ 5.52 µM); in [2] it was 64 µg/mL (≈ 44.2 µM); in data set [3], 64 µg/mL (≈ 44.2 µM); in data set [4] (S613HM334, Table 1, TSB), above 64 µg/mL; in data set [4] (S613HM334, Table 5, BHIB) it was above 128 µg/mL; in data set [4] (S613HM334, Table 5, TSB), above 128 µg/mL. Also, the MIC in [4] (S613HM334, Table 7, TSB) is above 64 µg/mL; in data set [5] (Table 5, BHIB), 2 µg/mL (≈ 1.38 µM); in data set [5] (Table 5, TSB), 2 µg/mL (≈ 1.38 µM); in [5] (Table 7, TSB), 2 µg/mL (≈ 1.38 µM); in data set [6], 2 µg/mL (≈ 1.38 µM); in data set [7], above 64 µg/mL. Besides, the figures for the MIC in [8] and in [9] were above 64 µg/mL and 32 µg/mL (≈ 22.1 µM), respectively.

Consider `CCN[C@H]1C[C@H](C)S(=O)(=O)c2sc(S(N)(=O)=O)cc21` [Dorzolamide], for which the “taxonomic structure and composition of microbiota” value in the data set on gut microbiota was “no major shift or change”. Besides, the MIC was above 128 µg/mL in [4] (S613HM334, Table 5, BHIB, read-out: MIC); 8 µg/mL (≈ 24.7 µM) in data set [4] (S613HM334, Table 5, TSB, read-out: MIC); above 256 µg/mL in data set [4] (S613HM334, Table 6, TSB in presence of 4% human serum albumin, read-out: MIC).

`NS(=O)(=O)c1nnc(NCc2ccccc2C(F)(F)F)s1` [analog 8]: the “reduction of VRE in the feces, cecum and ileum compared with AZM and linezolid” value in [10] is “superior to AZM and linezolid”. For the same compound, the survival entry in data set [11] was “all the mice survived”.

Source of the values: US20250328351A1, “CARBONIC ANHYDRASE INHIBITORS AND ANTIBIOTICS AGAINST MULTIDRUG RESISTANT BACTERIA” (Purdue Research Foundation, priority 2018, published 2025).
